According to patent US20060205692A1, “1,1-and 1,2-Bisphosphonates as apoliprotein e modulators” (priority 2002, published 2006):

System: ApoE
Assay: apoE secretion by PMA-differentiated THP-1 cells, apoE quantified by ELISA
Assay type: cell-based, human
Conditions: 3 days; for percent change in apoE secretion versus control at 25 µM / percent change in apoE secretion versus control at 50 µM / percent change in apoE secretion versus control at 100 µM: Homo sapiens, THP-1, 72 h
Text: The bisphosphonate compounds of the invention can modulate (increase or decrease) apoE levels in plasma and in tissues. The activities of the compounds can be determined in an in vitro cell assay comprising determining the modulatory effect of the test compound on the secretion of apoE by an apoE secreting cell line (e.g., a monocyte-macrophage cell line such as the THP-1 cell line, a liver derived cell line such as the HepG2 cell line, an intestinal derived cell line such as the CaCo2 cell line or a brain derived cell line such as the astrocytoma CCF-STTG1 cell line).
THP-1 cell line (ATCC TIB-202) are cultured in RPMI 1640 (with 2 mM of L-glutamine and 2 g/l of glucose, Invitrogen) supplemented with 2 g/l of sodium hydrogen carbonate (Fluka), 10 U/ml of penicillin, 10 μg/ml of streptomycin (Penicillin-Streptomycin, Invitrogen), 20 μM of 2-mercaptoethanol (Fluka) and 10% FCS (Amimed). Cells are incubated at 37° C. and 5% CO2.
Cells are seeded in 24 well tissue culture plates (Falcon), 2×10^5 cells in 500 μl of culture medium per well or 6 well plates for RT-PCR purpose, 1×10^6 cells in 2.5 ml of medium. PMA (Phorbol 12-myristate 13-acetate, Alexis), (stock in DMSO (Fluka) at 1 mg/ml) and other compounds are diluted in ethanol and added to the cells at an ethanol final concentration not exceeding 1%. Same volume of ethanol is added in controls. Plates are incubated for 3 days at 37° C. and 5% CO2 to allow cell differentiation and apoE secretion.
Medium contained in the wells is harvested and centrifuged 5 min at 1200 rpm. Supernatants are store at −20° C. until apoE quantification. The cell pellets are resuspended in PBS and counted with a ZI Coulter Counter. After a wash with PBS, adherent cells in the well bottoms are detached with trypsin-EDTA solution 10× (Invitrogen) diluted in PBS. The reaction is stopped with the addition of culture medium and the detached cells are counted.
ApoE was quantified by ELISA. 96 well plates (Costar) are coated with 5% of gelatine (from porcine skin, Fluka) in carbonate-bicarbonate buffer (Sigma) for 1 hour at 37° C. After removing the coating solution, 100 μl of THP-1 supernatant are added per well, diluted 5 times in buffer (PBS, 1% Top-Block (Juro), 0.1% Tween 20 (Fluka)). The incubation last 1 hour at 37° C., then the wells are washed 3 times with 200 μl of buffer. Plates are incubated for 1 hour at 37° C. with continuous stirring with the primary antibody (goat anti-human apoE IgG, Calbiochem) at a 10000-time dilution in buffer, 100 μl per well. After 3 washes, plates are incubated with the secondary antibody (rabbit anti-goat-IgG peroxidase conjugated, Sigma) diluted 5000 times, 100 μl per well, at 37° C. with shaking. Then the wells are washed 5 more times and the detection is achieved by adding 100 μl per well of o-phenylenediamine dihydrochloride (Sigma) and incubated for 15-20 minutes with shaking at room temperature. When the appropriated colour is reached, the reaction is stopped by adding 50 μl per well of 3 M sulfuric acid (Fluka) with shaking for 1 minute at room temperature. The absorbance is read at 492 nm versus 620 nm with a microplate photometer (Anthos Reader 2001).

Structure (SMILES)	percent change in apoE secretion versus control at 25 µM (compound 25 μM, 1.25 nM PMA) [%]	percent change in apoE secretion versus control at 25 µM (compound 25 μM, 2.5 nM PMA) [%]	percent change in apoE secretion versus control at 50 µM (compound 50 μM, 2.5 nM PMA) [%]	percent change in apoE secretion versus control at 100 µM (compound 100 μM, 2.5 nM PMA) [%]	% ApoE Change (compound 25 μM, 1.25 nM PMA) [%]	% ApoE Change (compound 25 μM, 2.5 nM PMA) [%]	% ApoE Change (compound 50 μM, 1.25 nM PMA) [%]	% ApoE Change (compound 50 μM, 2.5 nM PMA) [%]	% ApoE Change (compound 100 μM, 1.25 nM PMA) [%]	% ApoE Change (compound 100 μM, 2.5 nM PMA) [%]	also measured
CCOP(=O)(OCC)C(c1ccc(O)cc1)P(=O)(OCC)OCC [Tetraethyl 1-(4-hydroxy-phenyl)-methylidene-1,1-bisphosphonate]	-13	-3	-9	60							percent change in apoE secretion versus control at 50 µM (compound 50 μM, 1.25 nM PMA): 26%; percent change in apoE secretion versus control at 100 µM (compound 100 μM, 1.25 nM PMA): 125%
CCOP(=O)(OCC)C(c1ccc(OCCN2CCCC2)cc1)P(=O)(OCC)OCC [Tetraethyl 1-[4-(2-N-pyrrolidino-ethoxy)-phenyl]-methylidene-1,1-bisphosphonate]					−5	2	2	7	56	32	
CCOP(=O)(OCC)C(c1ccc(OCc2ccccn2)cc1)P(=O)(OCC)OCC [Tetraethyl 1-[4-(pyridin-2-yl-methoxy)-phenyl]-methylidene-1,1-bisphosphonate]					16	96	146	192	443	574	
CCOP(=O)(CC(c1ccc(OCCCN2C(=O)c3ccccc3C2=O)cc1)P(=O)(OCC)OCC)OCC (stereo not drawn) [Tetraethyl 1-[4-(3-N-phthalimidopropoxy)phenyl]-ethylidene-1,2-bisphosphonate]		644	942								
CCOP(=O)(OCC)C(c1ccc(OCCc2ccccn2)cc1)P(=O)(OCC)OCC [Tetraethyl 1-[4-(2-pyridin-2-yl-ethoxy)-phenyl]-methylidene-1,1-bisphosphonate]					57	38	133	73	363	145	
COP(=O)(OC)C(c1ccc(O)cc1)P(=O)(OC)OC [Tetramethyl 1-(4-hydroxy-phenyl)methylidene-1,1-bisphosphonate]					−7	−17	−27	−25	−19	−10	
CCOP(=O)(OCC)C(c1ccc(OCc2ccc(C#N)cc2)cc1)P(=O)(OCC)OCC [Tetraethyl 1-[4-(4-cyano-benzyloxy)-phenyl]-methylidene-1,1-bisphosphonate]					91	134	192	225	447	328	
CC(C)OP(=O)(OC(C)C)C(c1ccc(O)cc1)P(=O)(OC(C)C)OC(C)C [Tetraisopropyl 1-(4-hydroxy-phenyl)-methylidene-1,1-bisphosphonate]	290	52	35	73							percent change in apoE secretion versus control at 50 µM (compound 50 μM, 1.25 nM PMA): 399%; percent change in apoE secretion versus control at 100 µM (compound 100 μM, 1.25 nM PMA): 488%
CCOP(=O)(OCC)C(c1ccc(OCCCc2cccnc2)cc1)P(=O)(OCC)OCC [Tetraethyl 1-[4-(3-pyridin-3-yl-propoxy)-phenyl]-methylidene-1,1-bisphosphonate]					63	136	103	188	337	331	
CCOP(=O)(OCC)C(c1ccc(OCCN2CCOCC2)cc1)P(=O)(OCC)OCC [Tetraethyl 1-[4-(2-N-morpholino-ethoxy)-phenyl]-methylidene-1,1-bisphosphonate]					−17	−20	−8	−27	43	−3	
CCOP(=O)(CC(c1ccc(OCc2ccccn2)cc1)P(=O)(OCC)OCC)OCC (stereo not drawn) [Tetraethyl 1-[4-(pyridin-2-yl-methoxy)-phenyl]-ethylidene-1,2-bisphosphonate]						152		158		289	
CCOP(=O)(OCC)C(c1ccc(OCCCN2C(=O)c3ccccc3C2=O)cc1)P(=O)(OCC)OCC [Tetraethyl 1-[4-(3-N-phthalimido-propoxy)-phenyl]-methylidene-1,1-bisphosphonate]		352	405	482							
CCOP(=O)(CC(c1ccc(OCCN(C)c2ccccn2)cc1)P(=O)(OCC)OCC)OCC (stereo not drawn) [Tetraethyl 1-{4-[2-(methyl-pyridin-2-yl-amino)ethoxy]-phenyl}-ethylidene-1,2-bisphosphonate]	77	110	124	206							percent change in apoE secretion versus control at 50 µM (compound 50 μM, 1.25 nM PMA): 202%; percent change in apoE secretion versus control at 100 µM (compound 100 μM, 1.25 nM PMA): 569%
CCOP(=O)(OCC)C(c1ccc(OCCN(CCC#N)c2ccccc2)cc1)P(=O)(OCC)OCC [Tetraethyl 1-(4-{2-[(2-cyano-ethyl)-phenyl-amino]-ethoxy}-phenyl)-methylidene-1,1-bisphosphonate]	276	209	311	499							percent change in apoE secretion versus control at 50 µM (compound 50 μM, 1.25 nM PMA): 678%
CCOP(=O)(OCC)C(c1ccc(OCCN2C(=O)CCC2=O)cc1)P(=O)(OCC)OCC [Tetraethyl 1-[4-(2-N-succinimido-ethoxy)-phenyl]-methylidene-1,1-bisphosphonate]					−51	30	53	70	123	132	
CCOP(=O)(OCC)C(c1ccc(OC/C=C(\C)CC/C=C(\C)CCC=C(C)C)cc1)P(=O)(OCC)OCC [Tetraethyl 1-[4-(trans, trans-3,7,11-trimethyl-dodeca-2,6,10-trienyloxy)-phenyl]-methylidene-1,1-bisphosphonate]											% ApoE Change (compound 2.5 μM, 1.25 nM PMA): 14%; % ApoE Change (compound 2.5 μM, 2.5 nM PMA): 27%; % ApoE Change (compound 5.0 μM, 1.25 nM PMA): 46%; % ApoE Change (compound 5.0 μM, 2.5 nM PMA): 47%; % ApoE Change (compound 10 μM, 1.25 nM PMA): 31%; % ApoE Change (compound 10 μM, 2.5 nM PMA): 40%
CCOP(=O)(OCC)C(c1ccc(OCCCN(C)c2ccccn2)cc1)P(=O)(OCC)OCC [Tetraethyl 1-{4-[3-(methyl-pyridin-2-yl-amino)-propoxy]-phenyl}-methylidene-1,1-bisphosphonate]	375	557									
CCOP(=O)(OCC)C(c1ccc(OCCCO)cc1)P(=O)(OCC)OCC [Tetraethyl 1-[4(3-hydroxy-propoxy)-phenyl]-methylidene-1,1-bisphosphonate]	-27	-15	-16	0							percent change in apoE secretion versus control at 50 µM (compound 50 μM, 1.25 nM PMA): -21%; percent change in apoE secretion versus control at 100 µM (compound 100 μM, 1.25 nM PMA): 20%
